According to PubChem BioAssay AID330 (DTP/NCI, 2004):
Where “and” joins values, the source holds several entries; their conditions need not be identical. Identical values can stand only once. Inconclusive results and toxic doses are left out. The calls were made as follows: active = survival T/C of 150% or more; inactive = T/C below 125% in these data.

Tested on: P388 leukemia ip, CD2F1 mice, survival T/C
Assay: NCI In Vivo Anticancer Drug Screen. Data for tumor model P388 Leukemia (intraperitoneal) in CD2F1 (CDF1) mice
Details: endpoint: median survival time, higher = longer survival
Procedure, shortened: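 Mice carrying the transplanted tumor received test compound or vehicle. Survival was recorded in each group, and the value is the treated-group measurement divided by that of the vehicle-treated control group.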

[1] = dose: 50.0 mg/kg/injection, schedule: Q01DX005 (ip), vehicle: Klucel (hydroxypropylcellulose) (HPC)
[2] = dose: 100.0 mg/kg/injection, schedule: Q01DX005 (ip), vehicle: Klucel (hydroxypropylcellulose) (HPC)
[3] = dose: 200.0 mg/kg/injection, schedule: Q01DX005 (ip), vehicle: Klucel (hydroxypropylcellulose) (HPC)
[4] = dose: 50.0 mg/kg/injection, schedule: Q01DX009 (ip), vehicle: saline with Tween-80
[5] = dose: 50.0 mg/kg/injection, schedule: Q01DX005 (ip), vehicle: saline with Tween-80
[6] = dose: 100.0 mg/kg/injection, schedule: Q01DX005 (ip), vehicle: saline with Tween-80
[7] = dose: 200.0 mg/kg/injection, schedule: Q01DX005 (ip), vehicle: saline with Tween-80
[8] = dose: 60.0 mg/kg/injection, schedule: Q01DX005 (ip), vehicle: saline with Tween-80
[9] = dose: 120.0 mg/kg/injection, schedule: Q01DX005 (ip), vehicle: saline with Tween-80
[10] = dose: 240.0 mg/kg/injection, schedule: Q01DX005 (ip), vehicle: saline with Tween-80
[11] = dose: 50.0 mg/kg/injection, schedule: Q01DX009 (ip), vehicle: Klucel (hydroxypropylcellulose) (HPC)
[12] = dose: 100.0 mg/kg/injection, schedule: Q01DX009 (ip), vehicle: Klucel (hydroxypropylcellulose) (HPC)
[13] = dose: 200.0 mg/kg/injection, schedule: Q01DX009 (ip), vehicle: Klucel (hydroxypropylcellulose) (HPC)

Measured: T/C

O=C(CSC(=S)N1CCCCC1)c1ccccc1
inactive: dose: 12.5 mg/kg/injection, schedule: Q01DX009 (ip), vehicle: distilled water + Tween-80 95 % of control | dose: 25.0 mg/kg/injection, schedule: Q01DX009 (ip), vehicle: distilled water + Tween-80 101 % of control | dose: 50.0 mg/kg/injection, schedule: Q01DX009 (ip), vehicle: distilled water + Tween-80 100 % of control | dose: 100.0 mg/kg/injection, schedule: Q01DX009 (ip), vehicle: distilled water + Tween-80 101 % of control | dose: 200.0 mg/kg/injection, schedule: Q01DX009 (ip), vehicle: distilled water + Tween-80 99 % of control

O=C1C=Cc2ccc(O)cc2C1=O
inactive: dose: 1.25 mg/kg/injection, schedule: Q01DX009 (ip), vehicle: saline 100 % of control | dose: 1.25 mg/kg/injection, schedule: Q04DX003 (ip), vehicle: saline with Tween-80 90 % of control | dose: 2.5 mg/kg/injection, schedule: Q01DX009 (ip), vehicle: saline 110 % of control | dose: 2.5 mg/kg/injection, schedule: Q04DX003 (ip), vehicle: saline with Tween-80 109 % of control | dose: 5.0 mg/kg/injection, schedule: Q04DX003 (ip), vehicle: saline with Tween-80 109 % of control and 95 % of control

[O-][n+]1c2c(cc3ccccc31)Cc1ccccc1-2
inactive: [1] 109 % of control | [2] 101 % of control | [3] 106 % of control

COc1ccc2c(c1)CC(CN1CCC3(CC1)C(=O)NCN3c1ccccc1)O2 (centres undefined)
inactive: [4] 104 % of control | dose: 100.0 mg/kg/injection, schedule: Q01DX009 (ip), vehicle: saline with Tween-80 101 % of control | dose: 200.0 mg/kg/injection, schedule: Q01DX009 (ip), vehicle: saline with Tween-80 100 % of control

C=Cc1c(Cl)nc(C)c(C)c1-c1ccc(OC)c(OC)c1OCc1ccccc1
inactive: [1] 92 % of control | [2] 104 % of control | [3] 91 % of control

NC1=NN(S(=O)(=O)c2ccccc2)CC1
inactive: [1] 94 % of control | [2] 99 % of control | [3] 98 % of control

CCN1N=Nc2ccccc2NC1=O
inactive: [5] 101 % of control | [6] 91 % of control | [7] 96 % of control

Cc1cccc2c1/C(=C1/c3ccccc3C(=O)c3cccc(C)c31)c1ccccc1C2=O
inactive: dose: 50.0 mg/kg/injection, schedule: Q01DX005 (ip), vehicle: Klucel + Tween-80 87 % of control | dose: 100.0 mg/kg/injection, schedule: Q01DX005 (ip), vehicle: Klucel + Tween-80 90 % of control

CC(C)(C)c1cc2c3c(c1)C(C(F)(F)F)(C(F)(F)F)OS3(=O)(O)OC2(C(F)(F)F)C(F)(F)F
inactive: dose: 25.0 mg/kg/injection, schedule: Q01DX005 (ip), vehicle: saline with Tween-80 100 % of control | [5] 98 % of control | [6] 103 % of control

CC/C(=N/NS(=O)(=O)c1ccc(C)cc1)c1ccc(O)cc1
inactive: dose: 100.0 mg/kg/injection, schedule: Q04DX003 (ip), vehicle: saline 107 % of control | dose: 200.0 mg/kg/injection, schedule: Q04DX003 (ip), vehicle: saline 100 % of control | dose: 400.0 mg/kg/injection, schedule: Q04DX003 (ip), vehicle: saline 98 % of control

CCC(C)OC(=Nc1cccc2ccccc12)Nc1cccc2ccccc12 (centres undefined)
inactive: [8] 92 % of control | [9] 93 % of control | [10] 93 % of control

CCOC(=O)CC(C)(O)C1CC1 (centres undefined)
inactive: dose: 25.0 mg/kg/injection, schedule: Q01DX009 (ip), vehicle: Klucel (hydroxypropylcellulose) (HPC) 96 % of control | [11] 101 % of control | [12] 105 % of control and 94 % of control | [13] 103 % of control and 122 % of control

O=C1OC[C@H]2[C@H](c3ccc(O)c(O)c3)c3cc(O)c(O)cc3C[C@H]12
inactive: [5] 95 % of control | [6] 95 % of control | [7] 92 % of control

COc1ccccc1C1c2cc3c(cc2OC(C)(O)C1C)OCO3 (centres undefined)
inactive: [5] 100 % of control | [6] 97 % of control | [7] 96 % of control

C/C(=N\NC(N)=O)c1cccc(/C(C)=N/NC(N)=O)n1
inactive: dose: 25.0 mg/kg/injection, schedule: Q01DX009 (ip), vehicle: saline with Tween-80 116 % of control | [4] 109 % of control and 118 % of control

O=C(c1ccccc1Cl)n1oc2ccccc2c1=O
inactive: [1] 97 % of control | [2] 110 % of control | [3] 106 % of control

O=C1OCC2C(=O)OCC12 (centres undefined)
inactive: dose: 4.0 mg/kg/injection, schedule: Q01DX009 (ip), vehicle: saline with Tween-80 113 % of control and 87 % of control | dose: 8.0 mg/kg/injection, schedule: Q01DX009 (ip), vehicle: saline with Tween-80 108 % of control and 109 % of control and 96 % of control | dose: 16.0 mg/kg/injection, schedule: Q01DX009 (ip), vehicle: saline with Tween-80 100 % of control and 109 % of control and 118 % of control | dose: 32.0 mg/kg/injection, schedule: Q01DX009 (ip), vehicle: saline with Tween-80 104 % of control and 124 % of control and 95 % of control | dose: 50.0 mg/kg/injection, schedule: Q04DX003 (ip), vehicle: saline with Tween-80 99 % of control | dose: 64.0 mg/kg/injection, schedule: Q01DX009 (ip), vehicle: saline with Tween-80 100 % of control and 109 % of control and 124 % of control | dose: 100.0 mg/kg/injection, schedule: Q04DX003 (ip), vehicle: saline with Tween-80 102 % of control | dose: 128.0 mg/kg/injection, schedule: Q01DX009 (ip), vehicle: saline with Tween-80 113 % of control | dose: 200.0 mg/kg/injection, schedule: Q04DX003 (ip), vehicle: saline with Tween-80 105 % of control | dose: 400.0 mg/kg/injection, schedule: Q04DX003 (ip), vehicle: saline with Tween-80 99 % of control

CC(=Nc1ccc(F)cc1)C1C(=O)c2ccccc2C1=O
inactive: [1] 100 % of control | [2] 100 % of control | [3] 100 % of control

S=P(Oc1cc(Cl)cc(Cl)c1)(Oc1cc(Cl)cc(Cl)c1)Oc1cc(Cl)cc(Cl)c1
inactive: [1] 97 % of control | [2] 100 % of control | [3] 100 % of control

CN1[C@@H]2CC[C@H]1CC(O)(c1ccccc1)C2 (some centres undefined)
inactive: dose: 12.5 mg/kg/injection, schedule: Q01DX005 (ip), vehicle: saline 94 % of control | dose: 25.0 mg/kg/injection, schedule: Q01DX005 (ip), vehicle: saline 96 % of control | [5] 99 % of control | dose: 50.0 mg/kg/injection, schedule: Q01DX005 (ip), vehicle: saline 92 % of control

CCOC(=O)NC(=Cc1ccccn1)c1ccc(Cl)cc1 (mixture of isomers)
inactive: [8] 103 % of control | [9] 97 % of control | [10] 93 % of control

Cc1ccc(S(=O)(=O)N2OC2c2ccccc2C)cc1 (centres undefined)
inactive: [11] 107 % of control | [12] 106 % of control | [13] 103 % of control

C1CN2CCN1CC2.[Cl][Pt]([Cl])[Cl]
inactive: dose: 100.0 mg/kg/injection, schedule: Q04DX002 (ip), vehicle: saline with Tween-80 117 % of control | dose: 200.0 mg/kg/injection, schedule: Q04DX002 (ip), vehicle: saline with Tween-80 117 % of control
